Results as given in patent US12441695B2, “Substituted thiadiazinone dioxide and preparation method therefor, herbicidal composition, and application therefor” (Qingdao Kingagroot Chemical Compound Co., Ltd., priority 2019, dated 2025).

Assays:
[1] = tested on: major crops (wheat, corn, rice, soybean, cotton, oilseed rape, millet, sorghum); experiment: Experiment on weeding effect in post-emergence stage (crops); format: in vivo; settings: 600 g/ha active ingredient plus water 450 kg/ha, 3 weeks after application; for corn plant damage level (growth control rate): crop corn; for rice plant damage level (growth control rate): crop rice; for soybean plant damage level (growth control rate): crop soybean
Procedure: (§1) The above growth control rates are fresh weight control rates.
(§2) (1) Experiment on weeding effect in post-emergence stage: monocotyledonous and dicotyledonous weed seeds and major crop seeds (wheat, corn, rice, soybean, cotton, oilseed rape, millet, sorghum) were placed in plastic pots filled with soil, then covered with 0.5-2 cm of soil, allowed to grow in a good greenhouse environment. After 2-3 weeks of sowing, the test plants were treated. The tested compounds of the present invention were respectively dissolved in acetone, then added with Tween 80, diluted with a certain amount of water to obtain a solution with a certain concentration, and sprayed with a spray tower onto the plants.

[2] = tested on: monocotyledonous and dicotyledonous weeds; experiment: Experiment on weeding effect in post-emergence stage (weeds); format: in vivo; settings: 600 g/ha active ingredient plus water 450 kg/ha, 3 weeks after application, fresh weight control rate; for Amaranthus retroflexus activity level (growth control rate): fomesafen-resistant Amaranthus retroflexus
Source text: The activity level criteria for plant damage (i.e., growth control rate) are as follows: • Level 5: growth control rate is above 85%; • Level 4: growth control rate is greater than or equal to 60% and less than 85%; • Level 3: growth control rate is greater than or equal to 40% and less than 60%; • Level 2: growth control rate is greater than or equal to 20% and less than 40%; • Level 1: growth control rate is greater than or equal to […]; • Level 0: growth control rate is less than 5%.
as §1
as §2, with “plants. After the application, the plants were cultured for 3 weeks in the greenhouse, and then the experimental results of the weeding were listed in Table 2.” for “plants.”

Row | SMILES | corn plant damage level (growth control rate) [1] | Amaranthus retroflexus activity level (growth control rate) [2] | Digitaria sanguinalis activity level (growth control rate) [2] | Echinochloa crus-galli activity level (growth control rate) [2] | Setaria viridis activity level (growth control rate) [2] | rice plant damage level (growth control rate) [1] | soybean plant damage level (growth control rate) [1]
1 | CC(C)N1C(=O)c2cc(F)cc(F)c2N(C(=O)C2CC2)S1(=O)=O [Compound 217] | 1 (Level 1: growth control rate is greater than or equal to 500 and less than 200%) | 5 (Level 5: growth control rate is above 85%) | 5 (Level 5: growth control rate is above 85%) | 5 (Level 5: growth control rate is above 85%) | 5 (Level 5: growth control rate is above 85%) | – | –
2 | CC(C)N1C(=O)c2cc(F)ccc2N(C)S1(=O)=O [Compound 49] | 0 (Level 0: growth control rate is less than 5%) | 5 (Level 5: growth control rate is above 85%) | – | 3 (Level 3: growth control rate is greater than or equal to 40% and less than 60%) | 3 (Level 3: growth control rate is greater than or equal to 40% and less than 60%) | 0 (Level 0: growth control rate is less than 5%) | 0 (Level 0: growth control rate is less than 5%)
3 | CC(C)N1C(=O)c2cc(F)cc(Br)c2N(C(=O)C2CC2)S1(=O)=O [Compound 199] | 0 (Level 0: growth control rate is less than 5%) | 5 (Level 5: growth control rate is above 85%) | – | – | 5 (Level 5: growth control rate is above 85%) | 1 (Level 1: growth control rate is greater than or equal to 500 and less than 200%) | –
4 | CC(C)N1C(=O)c2cc(F)c(Cl)cc2NS1(=O)=O [Compound 147] | 0 (Level 0: growth control rate is less than 5%) | 3 (Level 3: growth control rate is greater than or equal to 40% and less than 60%) | – | – | – | 0 (Level 0: growth control rate is less than 5%) | –
5 | CCCOC(=O)N1c2c(F)cc(F)cc2C(=O)N(C(C)C)S1(=O)=O [Compound 218] | 0 (Level 0: growth control rate is less than 5%) | 5 (Level 5: growth control rate is above 85%) | – | 4 (Level 4: growth control rate is greater than or equal to 60% and less than 85%) | 5 (Level 5: growth control rate is above 85%) | 1 (Level 1: growth control rate is greater than or equal to 500 and less than 200%) | –
6 | CC(C)OC(=O)OC(C)N1c2c(F)cc(F)cc2C(=O)N(C(C)C)S1(=O)=O (racemic) [Compound 226] | 1 (Level 1: growth control rate is greater than or equal to 500 and less than 200%) | 5 (Level 5: growth control rate is above 85%) | – | – | – | 0 (Level 0: growth control rate is less than 5%) | –
7 | CCCCOC(=O)N1c2c(F)cc(F)cc2C(=O)N(C(C)C)S1(=O)=O [Compound 220] | 1 (Level 1: growth control rate is greater than or equal to 500 and less than 200%) | 4 (Level 4: growth control rate is greater than or equal to 60% and less than 85%) | 3 (Level 3: growth control rate is greater than or equal to 40% and less than 60%) | 5 (Level 5: growth control rate is above 85%) | 5 (Level 5: growth control rate is above 85%) | – | –
8 | CCC(=O)N1c2c(F)cc(F)cc2C(=O)N(C(C)C)S1(=O)=O [Compound 214] | 0 (Level 0: growth control rate is less than 5%) | 5 (Level 5: growth control rate is above 85%) | 5 (Level 5: growth control rate is above 85%) | 4 (Level 4: growth control rate is greater than or equal to 60% and less than 85%) | 5 (Level 5: growth control rate is above 85%) | – | –
9 | CCS(=O)(=O)N1c2ccc(F)cc2C(=O)N(C(C)C)S1(=O)=O [Compound 195] | 0 (Level 0: growth control rate is less than 5%) | 3 (Level 3: growth control rate is greater than or equal to 40% and less than 60%) | – | 3 (Level 3: growth control rate is greater than or equal to 40% and less than 60%) | – | 0 (Level 0: growth control rate is less than 5%) | 0 (Level 0: growth control rate is less than 5%)
10 | CC(C)N1C(=O)c2cc(F)ccc2N(C(C)OC(=O)OC2CCCCC2)S1(=O)=O (racemic) [Compound 194] | 0 (Level 0: growth control rate is less than 5%) | 4 (Level 4: growth control rate is greater than or equal to 60% and less than 85%) | – | – | – | 0 (Level 0: growth control rate is less than 5%) | 0 (Level 0: growth control rate is less than 5%)
11 | C=CC(=O)N1c2ccc(F)cc2C(=O)N(C(C)C)S1(=O)=O [Compound 183] | 0 (Level 0: growth control rate is less than 5%) | 3 (Level 3: growth control rate is greater than or equal to 40% and less than 60%) | – | – | – | 0 (Level 0: growth control rate is less than 5%) | 0 (Level 0: growth control rate is less than 5%)
12 | CCN1c2ccc(F)cc2C(=O)N(C(C)C)S1(=O)=O [Compound 176] | 0 (Level 0: growth control rate is less than 5%) | 5 (Level 5: growth control rate is above 85%) | – | – | – | 0 (Level 0: growth control rate is less than 5%) | 0 (Level 0: growth control rate is less than 5%)
13 | CCC(=O)N1c2ccc(F)cc2C(=O)N(C(C)C)S1(=O)=O [Compound 179] | 0 (Level 0: growth control rate is less than 5%) | 5 (Level 5: growth control rate is above 85%) | – | 5 (Level 5: growth control rate is above 85%) | 3 (Level 3: growth control rate is greater than or equal to 40% and less than 60%) | 1 (Level 1: growth control rate is greater than or equal to 500 and less than 200%) | 1 (Level 1: growth control rate is greater than or equal to 500 and less than 200%)
14 | CC(C)N1C(=O)c2cc(F)cc(F)c2NS1(=O)=O [Compound 142] | 1 (Level 1: growth control rate is greater than or equal to 500 and less than 200%) | 5 (Level 5: growth control rate is above 85%) | 5 (Level 5: growth control rate is above 85%) | 5 (Level 5: growth control rate is above 85%) | 5 (Level 5: growth control rate is above 85%) | 1 (Level 1: growth control rate is greater than or equal to 500 and less than 200%) | 1 (Level 1: growth control rate is greater than or equal to 500 and less than 200%)
15 | CC(C)N1C(=O)c2cc(F)cnc2NS1(=O)=O [Compound 75] | 1 (Level 1: growth control rate is greater than or equal to 500 and less than 200%) | 4 (Level 4: growth control rate is greater than or equal to 60% and less than 85%) | – | 3 (Level 3: growth control rate is greater than or equal to 40% and less than 60%) | 3 (Level 3: growth control rate is greater than or equal to 40% and less than 60%) | 1 (Level 1: growth control rate is greater than or equal to 500 and less than 200%) | –
16 | CC(C)N1C(=O)c2cc(F)ccc2N(C(=O)N(C)C)S1(=O)=O [Compound 190] | 0 (Level 0: growth control rate is less than 5%) | 3 (Level 3: growth control rate is greater than or equal to 40% and less than 60%) | – | – | – | 0 (Level 0: growth control rate is less than 5%) | 0 (Level 0: growth control rate is less than 5%)
